Test results published in ChEMBL document CHEMBL3797105, “Investigation of triazole-linked indole and oxindole glycoconjugates as potential anticancer agents: novel Akt/PKB signaling pathway inhibitors” (Medchemcomm, 2016).
Calls of active or inactive are those of the source. The calls are words filed in the database; no cut-off is given here.

How the values were obtained:
[1] = Cell cycle arrest in human DU145 cells assessed as accumulation at S phase at 5 uM after 48 hrs by propidium iodide staining based flow cytometry (reference value: 8.62%); assay type: functional; conditions: DU-145
[2] = Cell cycle arrest in human DU145 cells assessed as accumulation at G2/M phase at 25 uM after 48 hrs by propidium iodide staining based flow cytometry (reference value: 15.81%); assay type: functional; conditions: DU-145
DU-145 [3] = assay: Induction of apoptosis in human DU145 cells assessed as activation of caspase 8 using Ac-VETD-AMC as substrate preincubated for 48 hrs followed by substrate addition measured after 2 hrs by fluorescence analysis; assay type: functional, cell-based
[4] = Cell cycle arrest in human DU145 cells assessed as accumulation at sub G1 phase at 15 uM after 48 hrs by propidium iodide staining based flow cytometry (reference value: 2.30%); assay type: functional; conditions: DU-145
[5] = Cell cycle arrest in human DU145 cells assessed as accumulation at G2/M phase at 15 uM after 48 hrs by propidium iodide staining based flow cytometry (reference value: 15.81%); assay type: functional; conditions: DU-145
[6] = Cell cycle arrest in human DU145 cells assessed as accumulation at G2/M phase at 20 uM after 48 hrs by propidium iodide staining based flow cytometry (reference value: 15.81%); assay type: functional; conditions: DU-145
[7] = Cell cycle arrest in human DU145 cells assessed as accumulation at G0/G1 phase at 15 uM after 48 hrs by propidium iodide staining based flow cytometry (reference value: 61.28%); assay type: functional; conditions: DU-145
A549 = assay: Cytotoxicity against human A549 cells after 48 hrs by sulforhodamine B assay; assay type: functional, cell-based; conditions: A549, 48 h
MCF7 = assay: Cytotoxicity against human MCF7 cells after 48 hrs by sulforhodamine B assay; assay type: functional, cell-based; conditions: MCF7, 48 h
HeLa = assay: Cytotoxicity against human HeLa cells after 48 hrs by sulforhodamine B assay; assay type: functional, cell-based
[8] = Cell cycle arrest in human DU145 cells assessed as accumulation at G0/G1 phase at 10 uM after 48 hrs by propidium iodide staining based flow cytometry (reference value: 61.28%); assay type: functional; conditions: DU-145
DU-145 [9] = assay: Induction of apoptosis in human DU145 cells assessed as activation of caspase 9 using […] as substrate preincubated for 48 hrs followed by substrate addition measured after 2 hrs by fluorescence analysis; assay type: functional, cell-based
DU-145 [10] = assay: Induction of morphological changes in human DU145 cells after 48 hrs by microscopic analysis; assay type: functional, cell-based
DU-145 [11] = assay: Induction of apoptosis in human DU145 cells assessed as activation of caspase 3 using Ac-DEVD AMC as substrate at 5 to 25 uM preincubated for 48 hrs followed by substrate addition measured after 2 hrs by fluorescence analysis; assay type: functional, cell-based
[12] = Cell cycle arrest in human DU145 cells assessed as accumulation at sub G1 phase at 25 uM after 48 hrs by propidium iodide staining based flow cytometry (reference value: 2.30%); assay type: functional; conditions: DU-145
[13] = Cell cycle arrest in human DU145 cells assessed as accumulation at G0/G1 phase at 5 uM after 48 hrs by propidium iodide staining based flow cytometry (reference value: 61.28%); assay type: functional; conditions: DU-145
[14] = Cell cycle arrest in human DU145 cells assessed as accumulation at S phase at 10 uM after 48 hrs by propidium iodide staining based flow cytometry (reference value: 8.62%); assay type: functional; conditions: DU-145
[15] = Cell cycle arrest in human DU145 cells assessed as accumulation at S phase at 15 uM after 48 hrs by propidium iodide staining based flow cytometry (reference value: 8.62%); assay type: functional; conditions: DU-145
[16] = Cell cycle arrest in human DU145 cells assessed as accumulation at S phase at 20 uM after 48 hrs by propidium iodide staining based flow cytometry (reference value: 8.62%); assay type: functional; conditions: DU-145
DU-145 [17] = assay: Inhibition of colony formation in human DU145 cells after 9 days by crystal violet staining based microscopic analysis; assay type: functional, cell-based
[18] = Cell cycle arrest in human DU145 cells assessed as accumulation at S phase at 25 uM after 48 hrs by propidium iodide staining based flow cytometry (reference value: 8.62%); assay type: functional; conditions: DU-145
[19] = Cell cycle arrest in human DU145 cells assessed as accumulation at G0/G1 phase at 20 uM after 48 hrs by propidium iodide staining based flow cytometry (reference value: 61.28%); assay type: functional; conditions: DU-145
[20] = Cell cycle arrest in human DU145 cells assessed as accumulation at sub G1 phase at 5 uM after 48 hrs by propidium iodide staining based flow cytometry (reference value: 2.30%); assay type: functional; conditions: DU-145
[21] = Cell cycle arrest in human DU145 cells assessed as accumulation at sub G1 phase at 20 uM after 48 hrs by propidium iodide staining based flow cytometry (reference value: 2.30%); assay type: functional; conditions: DU-145
[22] = Cell cycle arrest in human DU145 cells assessed as accumulation at G2/M phase at 5 uM after 48 hrs by propidium iodide staining based flow cytometry (reference value: 15.81%); assay type: functional; conditions: DU-145
DU-145 [23] = assay: Inhibition of Akt phosphorylation in human DU145 cells after 48 hrs by Western blot analysis; assay type: cell-based
DU-145 [24] = assay: Inhibition of Akt in human DU145 cells assessed as increase in p27Kip1 levels after 48 hrs by Western blot analysis; assay type: cell-based
[25] = Cell cycle arrest in human DU145 cells assessed as accumulation at G0/G1 phase at 25 uM after 48 hrs by propidium iodide staining based flow cytometry (reference value: 61.28%); assay type: functional; conditions: DU-145
[26] = Cell cycle arrest in human DU145 cells assessed as accumulation at G2/M phase at 10 uM after 48 hrs by propidium iodide staining based flow cytometry (reference value: 15.81%); assay type: functional; conditions: DU-145
[27] = Cytotoxicity against human DU145 cells after 48 hrs by sulforhodamine B assay; assay type: functional, cell-based; conditions: DU-145, 48 h
[28] = Cell cycle arrest in human DU145 cells assessed as accumulation at sub G1 phase at 10 uM after 48 hrs by propidium iodide staining based flow cytometry (reference value: 2.30%); assay type: functional; conditions: DU-145
[29] = Cytotoxicity against mouse NIH/3T3 cells after 48 hrs by sulforhodamine B assay; conditions: NIH3T3, 48 h

SMILES	Activity [1] [%]	Activity [2] [%]	Activity (DU-145 [3])	Activity [4] [%]	Activity [5] [%]	Activity [6] [%]	Activity [7] [%]	IC50 (A549) [µM]	IC50 (MCF7) [µM]	IC50 (HeLa) [µM]	Activity [8] [%]	Activity (DU-145 [9])	Activity (DU-145 [10])	Activity (DU-145 [11])	Activity [12] [%]	Activity [13] [%]	Activity [14] [%]	Activity [15] [%]	Activity [16] [%]	inhibition (DU-145 [17])	also measured
CC(=O)OC[C@H]1O[C@@H](n2cc(CN3C(=O)/C(=C/c4ccc(C)cc4)c4ccccc43)nn2)[C@H](OC(C)=O)[C@@H](OC(C)=O)[C@@H]1OC(C)=O	6.85	9.05	Dose-dependent effect	17.2	14.9	10.9	46.6	16	> 100	85.6	48.1	Dose-dependent effect	Dose-dependent effect	Active	37.5	59.1	7.56	7.64	5.72	Dose-dependent effect	Activity [18]: 4.86%; Activity [19]: 40.5%; Activity [20]: 7.12%; Activity [21]: 34.3%; Activity [22]: 12.6%; inhibition (DU-145 [23]): Active; inhibition (DU-145 [24]): Dose-dependent effect; Activity [25]: 41.4%; Activity [26]: 16.7%; IC50 [27]: 9.3 µM; Activity [28]: 14.4%; IC50 [29]: 73.3 µM
CC(=O)OC[C@H]1O[C@@H](n2cc(Cn3cc(/C=C/C(=O)c4ccccc4)c4ccccc43)nn2)[C@H](OC(C)=O)[C@@H](OC(C)=O)[C@@H]1OC(C)=O	4.72	1.01	Dose-dependent effect	54	11.9	1.87	21.5	16.3	23.9	33	21.2	Dose-dependent effect	Dose-dependent effect	Active	84.1	75	4.41	3.82	1.34	Dose-dependent effect	Activity [18]: 0.8%; Activity [19]: 12.9%; Activity [20]: 4.53%; Activity [21]: 82.4%; Activity [22]: 8.22%; inhibition (DU-145 [23]): Active; inhibition (DU-145 [24]): Dose-dependent effect; Activity [25]: 12%; Activity [26]: 16.2%; IC50 [27]: 14.4 µM; Activity [28]: 43.7%; IC50 [29]: > 200 µM
